Read-outs that look alike come from different tables or passages of the source.
Assays:
E. coli SHV-11 = assay: checkerboard assay (FICI), peptide versus penicillin G; format: cell-based; conditions: strain with SHV-11; FICI below 0.5 = synergy
Source text: (§1) FIGS. 2A-2M. (FIG. 2A) TEM mutations and their effects on stability (total energy) as predicted by FoldX. […] Dashed line indicates a total energy difference of 0.5 kcal/mol, the FoldX cut-off above which mutations are considered to be destabilizing. (FIG. 2B) Barplot mapping mutations in (FIG. 2A) to the TEM sequence and indicating occurrence. […] The bar heights correspond to the number of times a mutation occurs across different TEM variants (right-hand y-axis). The color coding is identical to that in (FIG. 2A). Red line indicates the TANGO scores (indicated on the left-hand y-axis), with peaks corresponding to APRs. (FIG. 2C) Mapping of mutations in (FIG. 2A) and (FIG. 2B) to the TEM structure (pdb 1xpb). Protein surface is shown in gray, color coding of mutations is identical to (FIG. 2A) and (FIG. 2B). (FIGS. 2D, 2E, and 2F) Temperature-dependent evolution of the Right-Angle Light Scattering (RALS) intensity during a temperature ramp, similar as in FIG. 1F for key mutants of TEM1, namely TEM-10 (FIG. 2D), TEM-30 (FIG. 2E) and TEM-155 (FIG. 2F). Experiments were shown in triplicate, single repeat is shown. (FIG. 2G) Schematic representation of the structure of the peptides. APR—Aggregation Prone Region, R—Arginine. (FIG. 2H) Ribbon representation of the superposition of the crystal structures of TEM (green, pdb id 1bt5) and SHV (blue, pdb id 1shv). The catalytic site of the beta-lactamase activity is indicated and location of APR3 is shown in red. (FIG. 2I) TANGO aggregation score and alignment of APR3 in TEM and SHV. (FIG. 2J) Fractional Inhibitory Concentration Index determination of 5 peptides versus penicillin on E. coli TEM-104. […] FICI values below 0.5 indicate synergy. Values between 0.5 and 1.0 indicate additivity and values greater than 1 indicate indifference between the combined substances. (FIG. 2K) Same as J for E. coli SHV-11. (FIG. 2L) Same as J for a kanamycin resistant E. coli strain. (FIG. 2M) FICI values for the TEM3.2 peptide on a range of E. coli strains.
(§2) Moreover, the core sequence of peptide TEM3.0 also occurs in the structurally related SHV β-lactamase ([…]). Although the C-terminal extension residues H and N have been replaced with physicochemically similar R and Q, respectively (FIG. 2H). […] To quantify the synergy between these four peptides and penicillin G, we performed a so-called checkerboard assay, which allows to compare the activity of two test compounds co-incubated (here peptide and a beta-lactam antibiotic), to their individual activities in isolation. The result from the assay is quantified as the Fractional Inhibitory Concentration Index (FICI), and it is generally accepted that values below 0.5 indicate synergistic effects between the compounds. As a control, we generated a peptide using the same design, but based on a previously identified APR from the β-galactosidase enzyme (BGAL)^16 from E. coli (APR=SVIIWSL, peptide sequence=[…]) that has a MIC value>100 μg/mL on E. coli strain UZ_TEM104. We evaluated the synergy of the peptides with penicillin G in clinical E. coli isolates carrying the TEM ([…]) or SHV enzymes ([…]). […] As a further control, we also performed a checkerboard assay with an E. coli strain that was resistant to the aminoglycoside kanamycin and observed no synergy between this unrelated antibiotic and our peptides (FIG. 2L), in line with the notion that we are inhibiting a beta-lactamase but not the aminoglycoside degrading enzyme. […] The list of strains included some that harbored only TEM or SHV, but others contained additional Ambler Class A (CTX-M or […]) or Class B (VIM and NDM) beta-lactamases. […] In contrast, the presence of the NDM-type […], that does have a high affinity for Ampicillin and that is completely distinct in sequence and structure from TEM and SHV, seemed to completely prevent the effect of the peptide on the beta-lactam sensitivity of the strains in which it occurred (see also further). […]

[1] = system: TEM beta-lactamase in E. coli UZ_TEM104; assay: western blot of inclusion body (IB) fraction for TEM; format: cell-based; conditions: 12 μM peptide in PBS, 120 min
Protocol: (§3) FIGS. 3A-3P. […] Three replicates are shown for each condition. […] A single representative image is shown. […] Three replicates are shown for each condition. (FIG. 3E) [Left] […] [Middle] […] [Right] […] A single representative image is shown. […] A single representative image is shown. […] A single representative image is shown. […] A single representative blot is shown. […] 106 cells were analysed for the plot.
(§4) Moreover, we confirmed the presence of the protein in the correct band using mass spectrometry proteomics. We repeated this with a strain expressing SHV-154, blotting with a polyclonal rabbit antibody raised against the recombinant SHV enzyme described above (FIG. 3K).
(§5) The overnight culture of bacteria was centrifuged for 30 min at 4,000×g and cells were washed with physiological water (NaCl 0.9%). Bacterial cells were treated by peptide at the appropriate concentration for at least 2 h at 37 C. The bacterial pellets were washed with 10 mL buffer A (50 mM HEPES, pH 7.5, 300 mM NaCl, 5 mM β-mercaptoethanol, 1.0 mM EDTA) and centrifuged at 4° C. for 30 min at 4,000×g. The supernatant was discarded and 20 mL of buffer B (buffer A plus 1 tablet of the protease and phosphatase Inhibitor Cocktail (ab201119, Abcam, UK) was added to the bacterial pellet. In order to break the cells, a High-Pressure Homogenizer (Glen Creston Ltd) with the pressure set to 20,000-25,000 psi was used on ice, and in addition, the suspensions were sonicated (Branson Digital sonifier 50/60 Hz) on ice with alternating 2 min cycle (15 pulses at 50% power with 30 s pauses on ice, until completing 2 min total sonication time). The lysed cells were centrifuged at 4° C. for 30 min at 11,000×g. The precipitated fraction was afterward re-suspended with 10 mL buffer D (buffer A plus 0.8% (V/V) Triton X-100, 0.1% sodium deoxycholate) and the suspension was sonicated to ensure the pellet is completely dissolved. This step was repeated three times. Centrifugation was performed at 4° C. for 30 min at 11,000×g. Finally, to solubilize IBs, the pellet was suspended in 500 ul of buffer F (50 mM HEPES, pH 7.5, 8.0 M urea) of precipitated fraction.

[2] = system: SHV beta-lactamase in strain expressing SHV-154; assay: western blot of inclusion body (IB) fraction for SHV; format: cell-based, E. coli; conditions: 12 μM peptide in PBS, 120 min
Protocol: as §3, §4, §5

TEM-1 = biological target: T1, TEM-1 (Escherichia coli, UniProt P62593); assay: thermal denaturation with right-angle/static light scattering (aggregation) in presence of beta-lactamase inhibitors; format: biochemical, E. coli; conditions: TEM-1, dose titration of inhibitor
T1 construct: DNA TEM (870 bp) or SHV (894 bp) were each sub-cloned into a PUC57 vector cloning site NdeI/XhoI; His-tag (N); TEV cleavage site (N); made in house; host or cells: E. coli BL21 (DE3)
Source text: (FIG. 1E) Heat denaturation of TEM-1 monitored by intrinsic fluorescence plotted as the BaryCentric Mean (BCM) of the fluorescence emission spectrum in the presence (red) and absence (blue) of tazobactam. […] (FIG. 1F) Temperature-dependent evolution of the Right-Angle Light Scattering (RALS) intensity measured simultaneously with the data in FIG. 1G to monitor protein aggregation. […] (FIGS. 1G, 1H, 1I, and 1J) Same data as in FIG. 1F, but showing a dose-titration of different beta-lactamase inhibitors: tazobactam (FIG. 1G), clavulanate (FIG. 1H), vaborbactam (FIG. 1I) and avibactam (FIG. 1J). Each curve a single experiment, which was repeated in triplicate.
Then, we performed a thermal denaturation whilst simultaneously monitoring the intrinsic fluorescence as a measure of the folding status of the molecule (FIG. 1E), and the static light scattering as a measure of aggregation (FIG. 1F).

E. coli TEM-104 = assay: checkerboard assay (FICI), peptide versus penicillin G; format: cell-based; conditions: strain with TEM; FICI below 0.5 = synergy
Source text: as §1, §2

E. coli UZ_TEM104 = assay: FACS analysis with Propidium Iodide and pFTAA; format: cell-based; conditions: 400 μg/mL penicillin G only, 4 h
Protocol: as §3
First, we tested the assay using a mixture of live and heat inactivated (FIG. 3L) or just live bacteria (FIG. 3M), showing that heat inactivated, but not live bacteria are stained with PI, and neither are stained with pFTAA.
Bacterial cells in the cleaned suspensions were stained with both propidium iodide (PI) and FITC peptide to evaluate the killing rate and peptide uptake in a two-dimensional analysis. […] Treated bacteria washed with PBS buffer two times. One microliter of PI (Invitrogen) was added to the bacteria and incubated for 5 min. The bacteria were used by FACS tubes for 40000 events. To correlate the activity of the peptides with cell death, the fluorescence intensity was measured in two channels using the Gallios™ Flow Cytometer (Beckman Coulter, USA), PI: excitation 536 nm and emission 617 nm, FITC: excitation 490 nm and emission 525 nm. Heated bacteria at 90° C. for 10 min were used as PI-positive control.

E. coli strain UZ_TEM104 [3] = format: cell-based
E. coli strain UZ_TEM104 [4] = format: cell-based; conditions: peptide alone
Source text: In order to generate a synthetic amyloid peptide capable of inactivating the TEM-1 beta-lactamase enzyme by capitalizing on its aggregation propensity, we applied a previously developed design pattern for synthetic aggregating sequences. This involves a tandem repeat of the APR, each instance flanked by charged amino acids for solubility and separated by a short peptide linker^19,20,23 (FIG. 2G). Previous work has shown that good bacterial uptake can be achieved using one positively charged arginine residue on the N-terminal side of each APR in the tandem and two arginine residues on the C-terminal side. This has the additional benefit of reducing the self-aggregation of the peptides and increasing their solubility prior to target engagement. As before, we employed a single Pro residue as a linker between the APRs and focused on an APR length of seven, extending shorter APRs to this length by incorporating flanking amino acids unless they were obvious aggregation breakers (Arg, Lys, Asp, Glu or Pro, see Table 1). We obtained these peptides from solid phase synthesis, followed by HPLC purification to a purity judged by reverse phase chromatography of at least 90% (Genscript).
Determination of MIC values using the broth microdilution in the 96-well plate (BD Biosciences, Belgium) according to the EUCAST guideline, which was performed in 96-well polystyrene flat bottom microtiter plates (BD Biosciences). Briefly, a single colony was inoculated into 5 mL Difco™ Mueller Hinton Broth (BD Biosciences Ref 275730) and grown to the end-exponential growth phase in a shaking incubator at 37° C. Cultures were subsequently diluted to an MacFarland (0.5 optical density) then the culture was diluted to reach 10^6 CFU/mL in fresh MHB medium. 50 μl of different concentration of peptides ranging from 128 to 2 μg/mL were serially diluted to the sterile 96-well plate in MHB. 50 μL of the diluted bacteria in MHB were pipetted into 96-well plates to reach the final volume of 100 μL. The bacteria grown with the maximum concentration of carrier and medium were considered as positive and negative controls, respectively. The plates were statically incubated overnight at 37° C. to allow bacterial growth. OD was measured at 590 nm a multipurpose ultraviolet-visible plate reader, and the absorbance of the growth bacteria was measured using absorbance reader. Bacterial growth was also visually inspected and agreed well with the OD reading.

T1 sequence (P62593 24-286 limits assumed): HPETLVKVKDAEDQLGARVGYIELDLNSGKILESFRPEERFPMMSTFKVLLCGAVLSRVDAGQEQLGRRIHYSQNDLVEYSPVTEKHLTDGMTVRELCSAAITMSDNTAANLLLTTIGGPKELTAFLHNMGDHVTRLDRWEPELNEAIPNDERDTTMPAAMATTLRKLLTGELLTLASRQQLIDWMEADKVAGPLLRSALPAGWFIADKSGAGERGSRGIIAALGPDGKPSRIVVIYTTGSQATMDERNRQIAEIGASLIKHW

RLTAFLRQRRPRLTAFLRQRR (non-natural molecule) [TEM3.1]
synergy with penicillin G (FICI) (E. coli SHV-11): clear synergy
enrichment of the TEM protein in inclusion bodies (western blot) [1]: not
accumulation of the SHV enzyme in inclusion bodies (western blot) [2]: accumulates in IBs

NC(=O)[C@@H]1CC[C@@H]2CN1C(=O)N2OS(=O)(=O)O [avibactam]
aggregation of the enzyme (static light scattering), dose-response (TEM-1): reduce the aggregation of the enzyme in a dose-responsive manner

O=C(O)[C@H]1/C(=C/CO)O[C@@H]2CC(=O)N21 [clavulanate]
aggregation of the enzyme (static light scattering), dose-response (TEM-1): reduce the aggregation of the enzyme in a dose-responsive manner

RLTAFLRQRRPRLTAFLHNRR (non-natural molecule) [TEM3.3]
synergy with penicillin G (FICI) (E. coli SHV-11): synergy
synergy with penicillin G (FICI) (E. coli TEM-104): synergy
enrichment of the TEM protein in inclusion bodies (western blot) [1]: clear enrichment of the TEM protein in IBs
accumulation of the SHV enzyme in inclusion bodies (western blot) [2]: accumulates in IBs

O=C(O)C[C@@H]1CC[C@H](NC(=O)Cc2cccs2)B(O)O1 [vaborbactam]
aggregation of the enzyme (static light scattering), dose-response (TEM-1): reduce the aggregation of the enzyme in a dose-responsive manner

CC1(C)S[C@@H]2[C@H](NC(=O)Cc3ccccc3)C(=O)N2[C@H]1C(=O)O [penicillin G, Benzylpenicillin sodium]
change in PI (cell death) and pFTAA (aggregation) channels (E. coli UZ_TEM104): no major change in either channel
MIC penicillin (E. coli strain UZ_TEM104 [3]; penicillin alone, buffer, additive 0 μg/mL): 1600 µg/mL

Ac-RGIIAALGRRPRGIIAALGRR-NH2 [TEM6.0]
MIC peptide (E. coli strain UZ_TEM104 [4]): >100 µg/mL
MIC penicillin (E. coli strain UZ_TEM104 [3]; in presence of additive at 50 μg/mL): 1600 µg/mL

— patent US20240165196A1, “Beta-Lactamase Inhibitors” (VIB VZW, priority 2021, published 2024)
